Reference: patent US9283222B2 (priority 2006, dated 2016)

Each molecule was assayed against Recombinant Human Poly(ADP-Ribose) Polymerase (PARP), PARP-1 (Homo sapiens (Human), UniProt P09874). Settings: read-out: PARP-1 (Ki).
Sequence of Recombinant Human Poly(ADP-Ribose) Polymerase (PARP), PARP-1 (P09874 whole entry): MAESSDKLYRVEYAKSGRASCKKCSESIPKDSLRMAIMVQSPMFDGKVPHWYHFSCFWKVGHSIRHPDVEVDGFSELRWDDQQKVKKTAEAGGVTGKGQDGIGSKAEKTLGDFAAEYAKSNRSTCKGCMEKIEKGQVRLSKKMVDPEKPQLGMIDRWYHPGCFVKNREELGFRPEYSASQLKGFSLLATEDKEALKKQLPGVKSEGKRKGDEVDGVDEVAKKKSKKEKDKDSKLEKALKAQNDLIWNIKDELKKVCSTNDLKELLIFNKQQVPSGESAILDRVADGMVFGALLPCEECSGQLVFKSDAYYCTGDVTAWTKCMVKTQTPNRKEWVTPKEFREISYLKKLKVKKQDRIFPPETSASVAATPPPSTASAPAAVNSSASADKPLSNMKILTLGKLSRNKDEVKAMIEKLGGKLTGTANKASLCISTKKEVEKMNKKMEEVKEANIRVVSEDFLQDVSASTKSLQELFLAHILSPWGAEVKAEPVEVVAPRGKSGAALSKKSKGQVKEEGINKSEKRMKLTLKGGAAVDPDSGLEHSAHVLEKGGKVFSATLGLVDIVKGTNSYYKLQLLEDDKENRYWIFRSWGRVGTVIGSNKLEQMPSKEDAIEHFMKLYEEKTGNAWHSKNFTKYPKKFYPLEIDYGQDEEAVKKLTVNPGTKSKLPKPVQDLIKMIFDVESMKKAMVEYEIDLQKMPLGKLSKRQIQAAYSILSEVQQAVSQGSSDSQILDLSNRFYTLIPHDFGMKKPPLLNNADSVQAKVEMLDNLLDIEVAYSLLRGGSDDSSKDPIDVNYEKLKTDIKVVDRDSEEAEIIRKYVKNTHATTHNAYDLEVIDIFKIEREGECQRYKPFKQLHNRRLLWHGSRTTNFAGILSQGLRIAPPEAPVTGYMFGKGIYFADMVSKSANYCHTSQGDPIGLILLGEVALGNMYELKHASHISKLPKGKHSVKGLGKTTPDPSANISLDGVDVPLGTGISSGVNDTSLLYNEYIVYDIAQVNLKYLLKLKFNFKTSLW

| Ki | SMILES |
| --- | --- |
| 2 nM | O=C(c1cc(Cc2n[nH]c(=O)c3c2NCCC3)ccc1F)N1CCN(C(=O)N2CCOCC2)CC1 [Example 473, 8-(4-fluoro-3-((4-(morpholin-4-ylcarbonyl)piperazin-1-yl)carbonyl)benzyl)-2,3,4,6-tetrahydropyrido(2,3-d)pyridazin-5(1H)-one] |
| 5 nM | O=C(OCc1ccccc1)N1CCN(C(=O)c2cc(Cc3n[nH]c(=O)c4c3CCCC4)ccc2F)CC1 [Example 543, benzyl 4-{2-fluoro-5-[(4-oxo-3,4,5,6,7,8-hexahydrophthalazin-1-yl)methyl]benzoyl}piperazine-1-carboxylate] |

Same assay, conditions: read-out: PARP-1 (Ki); Table 1; text calls the values EC50s

| Ki | SMILES |
| --- | --- |
| 33 nM | O=C(NCCc1cccc(F)c1)c1cccc(Cc2n[nH]c(=O)c3c2CCCC3)c1 [Example 386, N-(2-(3-fluorophenyl)ethyl)-3-((4-oxo-3,4,5,6,7,8-hexahydrophthalazin-1-yl)methyl)benzamide] |
| 3 nM | O=C(c1cc(Cc2n[nH]c(=O)c3c2NCCC3)ccc1F)N1CCN(c2cccc(C(F)(F)F)c2)CC1 [Example 602, 8-[4-fluoro-3-({4-[3-(trifluoromethyl)phenyl]piperazin-1-yl}carbonyl)benzyl]-2,3,4,6-tetrahydropyrido[2,3-d]pyridazin-5(1H)-one] |
| 29 nM | O=C(NCc1cccs1)c1cccc(Cc2n[nH]c(=O)c3c2CCCC3)c1 [Example 309, 3-((4-oxo-3,4,5,6,7,8-hexahydrophthalazin-1-yl)methyl)-N-(thien-2-ylmethyl)benzamide] |
| 38 nM | O=C(NCCc1ccc(C(F)(F)F)cc1)c1cccc(Cc2n[nH]c(=O)c3c2CCCC3)c1 [Example 395, 3-((4-oxo-3,4,5,6,7,8-hexahydrophthalazin-1-yl)methyl)-N-(2-(4-(trifluoromethyl)phenyl)ethyl)benzamide] |
| 1.8 nM | CC1(C(=O)N2CCCN(C(=O)c3cc(Cc4n[nH]c(=O)c5c4CCCC5)ccc3F)CC2)CC1 [Example 635, 4-[4-fluoro-3-({4-[(1-methylcyclopropyl)carbonyl]-1,4-diazepan-1-yl}carbonyl)benzyl]-5,6,7,8-tetrahydrophthalazin-1(2H)-one] |
| 20 nM | CC1(C)C(=O)NCCN1C(=O)c1cc(Cc2n[nH]c(=O)c3c2NCCC3)ccc1F [Example 667, 8-{3-[(2,2-dimethyl-3-oxopiperazin-1-yl)carbonyl]-4-fluorobenzyl}-2,3,4,6-tetrahydropyrido[2,3-d]pyridazin-5(1H)-one] |
| 2.4 nM | COc1ccc(C(=O)N2CCN(C(=O)c3cc(Cc4n[nH]c(=O)c5c4CCCC5)ccc3F)CC2)cc1 [Example 622, 4-(4-fluoro-3-{[4-(4-methoxybenzoyl)piperazin-1-yl]carbonyl}benzyl)-5,6,7,8-tetrahydrophthalazin-1(2H)-one] |
| 68 nM | CN1CCN(C(=O)Nc2cc(Cc3n[nH]c(=O)c4c3CCCC4)ccc2F)CC1 [Example 584, N-{2-fluoro-5-[(4-oxo-3,4,5,6,7,8-hexahydrophthalazin-1-yl)methyl]phenyl}-4-methylpiperazine-1-carboxamide] |
| 4 nM | O=C(c1cc(Cc2n[nH]c(=O)c3c2NCCC3)ccc1F)N1CCN(CCO)CC1 [Example 535, 8-(4-fluoro-3-{[4-(2-hydroxyethyl)piperazin-1-yl]carbonyl}benzyl)-2,3,4,6-tetrahydropyrido[2,3-d]pyridazin-5(1H)-one] |
| 14 nM | O=C(NC1CCN(C(=O)c2ccncc2)CC1)c1cc(Cc2n[nH]c(=O)c3c2NCCC3)ccc1F [Example 738, 2-fluoro-N-(1-isonicotinoylpiperidin-4-yl)-5-[(5-oxo-1,2,3,4,5,6-hexahydropyrido[2,3-d]pyridazin-8-yl)methyl]benzamide] |
| 6 nM | CCN(C(C)=O)C1CCN(C(=O)c2cc(Cc3n[nH]c(=O)c4c3NCCC4)ccc2F)C1 (stereo not shown) [Example 596, N-ethyl-N-(1-{2-fluoro-5-[(5-oxo-1,2,3,4,5,6-hexahydropyrido[2,3-d]pyridazin-8-yl)methyl]benzoyl}pyrrolidine-3-yl)acetamide] |
| 120 nM | COc1ccc(Nc2ccc(NC(=O)c3cccc(Cc4n[nH]c(=O)c5c4CCCC5)c3)cc2)cc1 [Example 365, N-(4-((4-methoxyphenyl)amino)phenyl)-3-((4-oxo-3,4,5,6,7,8-hexahydrophthalazin-1-yl)methyl)benzamide] |
| 50 nM | Cc1ccc(CCNC(=O)c2cccc(Cc3n[nH]c(=O)c4c3CCCC4)c2)cc1C [Example 397] |
| 191 nM | CCCNC(=O)Nc1cc(Cc2n[nH]c(=O)c3c2CCCC3)ccc1F [Example 539, N-{2-fluoro-5-[(4-oxo-3,4,5,6,7,8-hexahydrophthalazin-1-yl)methyl]phenyl}-N′-propylurea] |
| 1.9 nM | C[C@@H]1CN(C(=O)c2ccccc2)CCN1C(=O)c1cc(Cc2n[nH]c(=O)c3c2CCCC3)ccc1F [Example 668, 4-(3-{[(2R)-4-benzoyl-2-methylpiperazin-1-yl]carbonyl}-4-fluorobenzyl)-5,6,7,8-tetrahydrophthalazin-1(2H)-one] |
| 1.8 nM | CC(C)n1nnc2cc(C(=O)N3CCN(C(=O)c4cc(Cc5n[nH]c(=O)c6c5CCCC6)ccc4F)CC3)ccc21 [Example 728, 4-[4-fluoro-3-({4-[(1-isopropyl-1H-1,2,3-benzotriazol-5-yl)carbonyl]piperazin-1-yl}carbonyl)benzyl]-5,6,7,8-tetrahydrophthalazin-1(2H)-one] |
| 40 nM | COc1ccc(CCNC(=O)c2cccc(Cc3n[nH]c(=O)c4c3CCCC4)c2)cc1 [Example 384, N-(2-(4-methoxyphenyl)ethyl)-3-((4-oxo-3,4,5,6,7,8-hexahydrophthalazin-1-yl)methyl)benzamide] |
| 79 nM | COc1ccccc1CCNC(=O)c1cccc(Cc2n[nH]c(=O)c3c2CCCC3)c1 [Example 382, N-(2-(2-methoxyphenyl)ethyl)-3-((4-oxo-3,4,5,6,7,8-hexahydrophthalazin-1-yl)methyl)benzamide] |

The next lines start with the molecule.

| SMILES | Ki |
| --- | --- |
| COc1ccc(C(=O)CCC(=O)Nc2cc(Cc3n[nH]c(=O)c4c3CCCC4)ccc2F)cc1 [Example 289, N-(2-fluoro-5-((4-oxo-3,4,5,6,7,8-hexahydrophthalazin-1-yl)methyl)phenyl)-4-(4-methoxyphenyl)-4-oxobutanamide] | 0.7 nM |
| CCNC(=O)c1ncccc1Cc1n[nH]c(=O)c2c1CCCC2 [Example 96, N-ethyl-3-((4-oxo-3,4,5,6,7,8-hexahydrophthalazin-1-yl)methyl)pyridine-2-carboxamide] | 2610 nM |
| O=C(Nc1cccc(Cc2n[nH]c(=O)c3c2CCCC3)c1)C(c1ccccc1)c1ccccc1 [Example 174, N-(3-((4-oxo-3,4,5,6,7,8-hexahydrophthalazin-1-yl)methyl)phenyl)-2,2-diphenylacetamide] | 655 nM |
| CC(Cc1n[nH]c(=O)c2c1CCCC2)c1ccc(F)c(-c2cccc(C(=O)NC3CC3)c2)c1 (stereo not shown) [Example 277, N-cyclopropyl-2′-fluoro-5′-(1-methyl-2-(4-oxo-3,4,5,6,7,8-hexahydrophthalazin-1-yl)ethyl)-1,1′-biphenyl-3-carboxamide] | 436 nM |
| COc1ccc(CCC(=O)Nc2cccc(Cc3n[nH]c(=O)c4c3CCCC4)c2)cc1 [Example 162, 3-(4-methoxyphenyl)-N-(3-((4-oxo-3,4,5,6,7,8-hexahydrophthalazin-1-yl)methyl)phenyl)propanamide] | 51 nM |
| NC(=O)c1cccc(-c2cc(CCc3n[nH]c(=O)c4c3CCCC4)ccc2F)c1 [Example 272, 2′-fluoro-5′-(2-(4-oxo-3,4,5,6,7,8-hexahydrophthalazin-1-yl)ethyl)-1,1′-biphenyl-3-carboxamide] | 204 nM |
| COC(=O)c1ccc(Cc2n[nH]c(=O)c3c2CCCC3)s1 [Example 92, methyl 5-((4-oxo-3,4,5,6,7,8-hexahydrophthalazin-1-yl)methyl)thiophene-2-carboxylate] | 167 nM |
| O=C(Nc1cccc(Cc2n[nH]c(=O)c3c2CCCC3)c1)c1ccccc1C(=O)c1ccccc1 [Example 241, 2-benzoyl-N-(3-((4-oxo-3,4,5,6,7,8-hexahydrophthalazin-1-yl)methyl)phenyl)benzamide] | 1450 nM |
| O=C(c1ccc(-c2cc(Cc3n[nH]c(=O)c4c3CCCC4)ccc2F)cc1)N1CCCC1 [Example 251, 4-((6-fluoro-4′-(pyrrolidin-1-ylcarbonyl)-1,1′-biphenyl-3-yl)methyl)-5,6,7,8-tetrahydrophthalazin-1(2H)-one] | 446 nM |
| NCC(=O)Nc1cccc(Cc2n[nH]c(=O)c3c2CCCC3)c1 [Example 111] | 12 nM |
| O=C(Nc1cccc(Cc2n[nH]c(=O)c3c2CCCC3)c1)c1ccncc1 [Example 211, N-(3-((4-oxo-3,4,5,6,7,8-hexahydrophthalazin-1-yl)methyl)phenyl)isonicotinamide] | 98 nM |
| COc1cc(C(=O)Nc2cccc(Cc3n[nH]c(=O)c4c3CCCC4)c2)ccc1C [Example 227, 3-methoxy-4-methyl-N-(3-((4-oxo-3,4,5,6,7,8-hexahydrophthalazin-1-yl)methyl)phenyl)benzamide] | 60 nM |
| O=C(c1cccc(Cc2n[nH]c(=O)c3c2CCCC3)c1)N1CCC(O)CC1 [Example 428, 4-(3-((4-hydroxypiperidin-1-yl)carbonyl)benzyl)-5,6,7,8-tetrahydrophthalazin-1(2H)-one] | 5 nM |
| O=C(NC1CC1)c1cccc(Cc2n[nH]c(=O)c3c2CCCC3)n1 [Example 83, N-cyclopropyl-6-((4-oxo-3,4,5,6,7,8-hexahydrophthalazin-1-yl)methyl)pyridine-2-carboxamide] | 126 nM |
| CC(=O)Nc1cccc(-c2cc(C(C)Cc3n[nH]c(=O)c4c3CCCC4)ccc2F)c1 (stereo not shown) [Example 296, N-(2′-fluoro-5′-(1-methyl-2-(4-oxo-3,4,5,6,7,8-hexahydrophthalazin-1-yl)ethyl)-1,1′-biphenyl-3-yl)acetamide] | 683 nM |
| CS(=O)(=O)Nc1cccc(Cc2n[nH]c(=O)c3c2CCCC3)c1 [Example 114, N-(3-((4-oxo-3,4,5,6,7,8-hexahydrophthalazin-1-yl)methyl)phenyl)methanesulfonamide] | 65 nM |

Same assay, conditions: read-out: PARP-1 (Ki); Table 3; H analogs versus para-F analogs

| Ki | SMILES |
| --- | --- |
| 4 nM | O=C(c1cccc(Cc2n[nH]c(=O)c3c2CCCC3)c1)N1CCN(c2ccccc2F)CC1 [drawing 38] |
